Assay: xn = mol fraction of the nth substance listed
Conditions: 101 kPa

**Q.** For `C[S+](C)C.O=S(=O)([N-]S(=O)(=O)C(F)(F)F)C(F)(F)F` + N#CCCCC#N, which viscosity (283 K, x1 = 0.2085) is on record?
**A.** 18.02 mPa·s

**Q.** What about the viscosity (288 K, x1 = 0.2085) of the same molecule?
**A.** 15.07 mPa·s

**Q.** And the viscosity (293 K, x1 = 0.2085)?
**A.** 12.76 mPa·s

**Q.** What about the viscosity (298 K, x1 = 0.2085) of the same molecule?
**A.** 10.92 mPa·s

**Q.** And the viscosity (308 K, x1 = 0.2085)?
**A.** 8.25 mPa·s

**Q.** And the viscosity (313 K, x1 = 0.2085)?
**A.** 7.26 mPa·s

**Q.** And the viscosity (323 K, x1 = 0.2085)?
**A.** 5.744 mPa·s

**Q.** And the viscosity (343 K, x1 = 0.2085)?
**A.** 3.871 mPa·s

**Q.** And the viscosity (353 K, x1 = 0.2085)?
**A.** 3.283 mPa·s

**Q.** With `C[NH+](C)C.O=S(=O)([N-]S(=O)(=O)C(F)(F)F)C(F)(F)F` + N#CCCCC#N as the molecule, how does the viscosity (278 K, x1 = 0.2167) read?
**A.** 23 mPa·s

**Q.** What about the viscosity (283 K, x1 = 0.2167) of the same molecule?
**A.** 18.87 mPa·s

**Q.** What about the viscosity (293 K, x1 = 0.2167) of the same molecule?
**A.** 13.35 mPa·s

**Q.** What about the viscosity (303 K, x1 = 0.2167) of the same molecule?
**A.** 9.89 mPa·s

**Q.** And the viscosity (308 K, x1 = 0.2167)?
**A.** 8.64 mPa·s

**Q.** What about the viscosity (313 K, x1 = 0.2167) of the same molecule?
**A.** 7.609 mPa·s

**Q.** And the viscosity (323 K, x1 = 0.2167)?
**A.** 6.028 mPa·s

**Q.** And the viscosity (328 K, x1 = 0.2167)?
**A.** 5.417 mPa·s

**Q.** What about the viscosity (333 K, x1 = 0.2167) of the same molecule?
**A.** 4.899 mPa·s

**Q.** What about the viscosity (338 K, x1 = 0.2167) of the same molecule?
**A.** 4.457 mPa·s

**Q.** And the viscosity (343 K, x1 = 0.2167)?
**A.** 4.07 mPa·s

**Q.** And the viscosity (348 K, x1 = 0.2167)?
**A.** 3.741 mPa·s
